The target of experiment [1] is Cyclin-dependent kinase 4/cyclin D1 (Homo sapiens) (UniProt P11802+P24385). Nature of the experiment: Inhibition of human CDK4/CyclinD1 at 1 uM using RBER-CHKtide, as substrate in presence of 33P-ATP by ProQinase assay. The experiment is classed as protein-complex assay.
Experiment [2] deals with Misshapen-like kinase 1 (Homo sapiens) (UniProt Q8N4C8). Description: Inhibition of human MINK1 at 1 uM using RBER-CHKtide as substrate in presence of 33P-ATP by ProQinase assay.
Experiment [3] addresses Serine/threonine-protein kinase PAK 2 (Homo sapiens) (UniProt Q13177). Nature of the experiment: Inhibition of human PAK2 at 1 uM using bio-4xCHKT as substrate in presence of 33P-ATP by ProQinase assay.
In experiment [4] the target is Serine/threonine-protein kinase SIK2 (Homo sapiens) (UniProt Q9H0K1). Description: Inhibition of human SNF1LK2 at 1 uM using RBER-CHKtide as substrate in presence of 33P-ATP by ProQinase assay.
In experiment [5] the target is High affinity nerve growth factor receptor (Homo sapiens) (UniProt P04629). Nature of the experiment: Inhibition of recombinant human N-terminal His6-tagged TrkA (441 to 760 residues) expressed in baculovirus infected Sf21 cells assessed as remaining activity at 1 uM using Poly(Glu,Tyr) as substrate incubated for 30 mins in presence of [gamma-33P]ATP by filter binding method relative to control.

The target of experiment [6] is PI3-kinase p110-alpha/p85-alpha (Homo sapiens, UniProt P42336). Description: Inhibition of human PIK3CA/PIK3R1 using PIP2/PS as substrate by ADP-Glo assay. In kind it is protein-complex assay. (ADP-Glo first removes unused ATP, then detects ADP through luciferase.)
Experiment [7] addresses MAP kinase-interacting serine/threonine-protein kinase 2 (Homo sapiens) (UniProt Q9HBH9). Nature of the experiment: Inhibition of human MKNK2 at 1 uM using RB-S6P as substrate in presence of 33P-ATP by ProQinase assay.
Experiment [8] has as its target Proto-oncogene tyrosine-protein kinase ROS (Homo sapiens) (UniProt P08922). Nature of the experiment: Inhibition of human ROS at 1 uM using poly(Ala,Glu,Lys,Tyr) as substrate in presence of 33P-ATP by ProQinase assay.
Experiment [9] has as its system TGF-beta receptor type-1 (Homo sapiens), P36897 [T204D]. Nature of the experiment: Inhibition of recombinant human N-terminal GST-tagged TGFBR1 T204D mutant (200 to 501 residues) expressed in baculovirus infected Sf21 cells assessed as remaining activity at 1 uM using crosstide peptide as substrate incubated for 30 mins in presence of [gamma-33P]ATP by filter binding method relative to control.

Experiment [10] deals with Calcium/calmodulin-dependent protein kinase kinase 2 (Homo sapiens) (UniProt Q96RR4). Description: Inhibition of recombinant human N-terminal GST-tagged CAMKKbeta (1 to 541 residues) expressed in Escherichia coli assessed as remaining activity at 1 uM using DGEFLRTSCGSPNYAARRR as substrate incubated for 30 mins in presence of [gamma-33P]ATP by filter binding method relative to control.

In experiment [11] the test system is RAC-beta serine/threonine-protein kinase (Homo sapiens), P31751 [S474D]. Nature of the experiment: Inhibition of recombinant human N-terminal His6-tagged PKBbeta S474D mutant (120 to 481 residues) expressed in baculovirus infected Sf21 cells assessed as remaining activity at 1 uM using crosstide peptide as substrate incubated for 30 mins in presence of [gamma-33P]ATP by filter binding method relative to control.

Experiment [12] concerns RAC-alpha serine/threonine-protein kinase (Homo sapiens), P31749 [S473D]. Nature of the experiment: Inhibition of recombinant human His6-tagged PKBalpha S473D mutant (118 to 480 residues) expressed in baculovirus infected Sf21 cells assessed as remaining activity at 1 uM using crosstide peptide as substrate incubated for 30 mins in presence of [gamma-33P]ATP by filter binding method relative to control.

The target of experiment [13] is Ephrin type-A receptor 4 (Homo sapiens) (UniProt P54764). Description: Inhibition of human EPHA4 at 1 uM using polyEY as substrate in presence of 33P-ATP by ProQinase assay.
For experiment [14], the target named is Serine/threonine-protein kinase Chk2 (Homo sapiens) (UniProt O96017). Nature of the experiment: Inhibition of recombinant human N-terminal GST/C-terminal His6-tagged CHK2 (5 to 543 residues) expressed in Escherichia coli assessed as remaining activity at 1 uM using CHKtide as substrate incubated for 30 mins in presence of [gamma-33P]ATP by filter binding method relative to control.

Experiment [15] deals with Phosphatidylinositol 4-kinase type 2-alpha (Homo sapiens, UniProt Q9BTU6). Description: Inhibition of human PI4K2A using PI/PS as substrate by ADP-Glo assay.
The target in experiment [16] is Receptor-interacting serine/threonine-protein kinase 2 (Homo sapiens) (UniProt O43353). Nature of the experiment: Inhibition of recombinant human N-terminal GST-tagged RIPK2 (2 to 311 residues) expressed in baculovirus infected Sf21 cells assessed as remaining activity at 1 uM using MBP as substrate incubated for 30 mins in presence of [gamma-33P]ATP by filter binding method relative to control.

Experiment [17] has as its target Rhodopsin kinase GRK7 (Homo sapiens) (UniProt Q8WTQ7). Nature of the experiment: Inhibition of human GRK7 at 1 uM using casein as substrate in presence of 33P-ATP by ProQinase assay.
For experiment [18], the target named is Serine/threonine-protein kinase N2 (Homo sapiens) (UniProt Q16513). Nature of the experiment: Inhibition of recombinant N-terminal His6/FLAG-tagged human PRK2 (501 to 984 residues) expressed in baculovirus infected Sf21 cells assessed as remaining activity at 1 uM using S6 peptide as substrate incubated for 30 mins in presence of [gamma-33P]ATP by filter binding method relative to control.

For experiment [19], the target named is Platelet-derived growth factor receptor alpha (Homo sapiens) (UniProt P16234). Description: Inhibition of recombinant human PDGFRalpha (551 to […] residues) expressed in baculovirus infected Sf21 cells assessed as remaining activity at 1 uM using KKKKEEIYFFFG as substrate incubated for 30 mins in presence of [gamma-33P]ATP by filter binding method relative to control.

Experiment [20] has as its target Serine/threonine-protein kinase 24 (Homo sapiens) (UniProt Q9Y6E0). Description: Inhibition of recombinant human N-terminal GST-tagged MST3 (1 to 431 residues) expressed in baculovirus infected Sf21 cells assessed as remaining activity at 1 uM using MBP as substrate incubated for 30 mins in presence of [gamma-33P]ATP by filter binding method relative to control.

For experiment [21], the target named is Serine/threonine-protein kinase haspin (Homo sapiens) (UniProt Q8TF76). Description: Inhibition of human GSG2 at 1 uM using histon H3 as substrate in presence of 33P-ATP by ProQinase assay.
Experiment [22] deals with Phosphatidylinositol 4-kinase type 2-beta (Homo sapiens, UniProt Q8TCG2). Nature of the experiment: Inhibition of human PI4K2B using PI/PS as substrate by ADP-Glo assay.
The target in experiment [23] is Myosin light chain kinase 2, skeletal/cardiac muscle (Homo sapiens) (UniProt Q9H1R3). Description: Inhibition of human MYLK2 at 1 uM using RB-S6P as substrate in presence of 33P-ATP by ProQinase assay.

The structures appear in SMILES notation. Activity calls are given as the source filed them. The calls are words filed in the database; no cut-off is given here.

Among the data in ChEMBL document CHEMBL5705899 (Biochem J, 2014) are inhibition, Activity and IC50 values, retold here.

Sequence of Phosphatidylinositol 4-kinase type 2-beta (Q8TCG2 whole entry): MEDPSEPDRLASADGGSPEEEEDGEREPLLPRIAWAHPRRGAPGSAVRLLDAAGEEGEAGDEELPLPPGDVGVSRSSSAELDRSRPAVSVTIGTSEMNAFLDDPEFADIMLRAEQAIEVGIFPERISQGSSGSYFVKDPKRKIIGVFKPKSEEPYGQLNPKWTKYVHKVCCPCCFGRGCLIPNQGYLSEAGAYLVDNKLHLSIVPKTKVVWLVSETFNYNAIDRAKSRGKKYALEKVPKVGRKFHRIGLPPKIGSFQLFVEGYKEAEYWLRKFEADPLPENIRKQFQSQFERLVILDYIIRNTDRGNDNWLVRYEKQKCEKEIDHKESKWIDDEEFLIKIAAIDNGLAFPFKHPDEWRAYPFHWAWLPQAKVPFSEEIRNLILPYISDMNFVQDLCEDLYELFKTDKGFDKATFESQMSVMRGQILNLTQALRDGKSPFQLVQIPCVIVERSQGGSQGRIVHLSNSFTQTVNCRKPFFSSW
Sequence of Rhodopsin kinase GRK7 (Homo sapiens) (Q8WTQ7 whole entry, the tested form may be a part): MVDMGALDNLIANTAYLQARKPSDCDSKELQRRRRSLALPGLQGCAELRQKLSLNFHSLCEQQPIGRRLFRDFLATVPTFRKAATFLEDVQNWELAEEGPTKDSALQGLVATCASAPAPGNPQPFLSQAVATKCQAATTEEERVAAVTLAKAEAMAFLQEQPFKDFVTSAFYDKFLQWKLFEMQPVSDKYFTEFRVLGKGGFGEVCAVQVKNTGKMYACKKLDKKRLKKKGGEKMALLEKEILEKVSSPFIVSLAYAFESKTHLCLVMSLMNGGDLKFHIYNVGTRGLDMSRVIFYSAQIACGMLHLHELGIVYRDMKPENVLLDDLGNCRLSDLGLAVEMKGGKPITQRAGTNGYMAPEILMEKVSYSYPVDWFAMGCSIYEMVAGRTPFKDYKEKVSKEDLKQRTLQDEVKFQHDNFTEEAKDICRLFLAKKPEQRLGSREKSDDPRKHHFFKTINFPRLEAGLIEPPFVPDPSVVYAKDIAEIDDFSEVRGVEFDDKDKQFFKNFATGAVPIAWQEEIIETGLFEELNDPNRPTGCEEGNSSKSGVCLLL
Sequence of Ephrin type-A receptor 4 (Homo sapiens) (P54764 whole entry, the tested form may be a part): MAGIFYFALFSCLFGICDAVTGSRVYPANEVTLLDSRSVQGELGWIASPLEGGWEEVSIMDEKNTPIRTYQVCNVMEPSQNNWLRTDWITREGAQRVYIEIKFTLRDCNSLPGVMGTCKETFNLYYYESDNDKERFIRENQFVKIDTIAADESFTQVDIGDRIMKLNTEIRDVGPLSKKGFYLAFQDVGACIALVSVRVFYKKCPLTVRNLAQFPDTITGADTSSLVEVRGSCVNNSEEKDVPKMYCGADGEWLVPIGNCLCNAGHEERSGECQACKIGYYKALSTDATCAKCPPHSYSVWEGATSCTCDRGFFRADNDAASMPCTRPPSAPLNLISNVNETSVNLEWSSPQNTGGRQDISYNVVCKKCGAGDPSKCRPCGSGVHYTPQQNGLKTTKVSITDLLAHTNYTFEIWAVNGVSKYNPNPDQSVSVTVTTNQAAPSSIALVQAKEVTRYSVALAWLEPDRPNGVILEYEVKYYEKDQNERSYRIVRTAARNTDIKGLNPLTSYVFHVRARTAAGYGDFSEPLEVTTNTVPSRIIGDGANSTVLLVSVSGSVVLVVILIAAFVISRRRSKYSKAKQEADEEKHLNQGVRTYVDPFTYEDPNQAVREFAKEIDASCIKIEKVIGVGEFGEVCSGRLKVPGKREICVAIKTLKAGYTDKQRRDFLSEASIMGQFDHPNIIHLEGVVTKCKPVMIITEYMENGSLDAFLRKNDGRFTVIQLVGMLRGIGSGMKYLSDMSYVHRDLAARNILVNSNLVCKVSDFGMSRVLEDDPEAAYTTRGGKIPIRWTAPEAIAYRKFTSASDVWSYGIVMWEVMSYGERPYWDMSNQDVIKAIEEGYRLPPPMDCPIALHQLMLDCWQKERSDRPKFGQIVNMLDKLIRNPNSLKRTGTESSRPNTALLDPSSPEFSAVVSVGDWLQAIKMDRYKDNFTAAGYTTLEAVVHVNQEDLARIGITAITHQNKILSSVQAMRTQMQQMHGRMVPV
Sequence of PI3-kinase p110-alpha/p85-alpha (P27986 whole entry): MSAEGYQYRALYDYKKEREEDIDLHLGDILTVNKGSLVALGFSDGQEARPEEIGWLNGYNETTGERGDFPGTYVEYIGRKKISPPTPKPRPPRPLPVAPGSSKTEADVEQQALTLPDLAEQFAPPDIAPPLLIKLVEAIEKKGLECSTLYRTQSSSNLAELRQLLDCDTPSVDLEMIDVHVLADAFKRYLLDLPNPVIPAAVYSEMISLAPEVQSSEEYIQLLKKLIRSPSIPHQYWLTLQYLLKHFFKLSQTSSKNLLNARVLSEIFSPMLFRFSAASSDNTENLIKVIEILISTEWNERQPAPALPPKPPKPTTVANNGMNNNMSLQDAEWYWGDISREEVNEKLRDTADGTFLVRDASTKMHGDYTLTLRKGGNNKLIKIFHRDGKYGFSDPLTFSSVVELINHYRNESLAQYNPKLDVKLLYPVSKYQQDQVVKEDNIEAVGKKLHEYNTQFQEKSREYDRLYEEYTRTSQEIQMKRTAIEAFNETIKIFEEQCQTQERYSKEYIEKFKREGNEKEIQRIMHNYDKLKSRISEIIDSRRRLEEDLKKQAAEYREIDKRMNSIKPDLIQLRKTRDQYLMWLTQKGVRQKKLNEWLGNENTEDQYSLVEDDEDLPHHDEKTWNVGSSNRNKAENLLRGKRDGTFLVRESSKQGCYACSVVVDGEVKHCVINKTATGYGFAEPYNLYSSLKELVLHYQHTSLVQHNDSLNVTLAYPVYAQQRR
Sequence of PI3-kinase p110-alpha/p85-alpha (P42336 whole entry): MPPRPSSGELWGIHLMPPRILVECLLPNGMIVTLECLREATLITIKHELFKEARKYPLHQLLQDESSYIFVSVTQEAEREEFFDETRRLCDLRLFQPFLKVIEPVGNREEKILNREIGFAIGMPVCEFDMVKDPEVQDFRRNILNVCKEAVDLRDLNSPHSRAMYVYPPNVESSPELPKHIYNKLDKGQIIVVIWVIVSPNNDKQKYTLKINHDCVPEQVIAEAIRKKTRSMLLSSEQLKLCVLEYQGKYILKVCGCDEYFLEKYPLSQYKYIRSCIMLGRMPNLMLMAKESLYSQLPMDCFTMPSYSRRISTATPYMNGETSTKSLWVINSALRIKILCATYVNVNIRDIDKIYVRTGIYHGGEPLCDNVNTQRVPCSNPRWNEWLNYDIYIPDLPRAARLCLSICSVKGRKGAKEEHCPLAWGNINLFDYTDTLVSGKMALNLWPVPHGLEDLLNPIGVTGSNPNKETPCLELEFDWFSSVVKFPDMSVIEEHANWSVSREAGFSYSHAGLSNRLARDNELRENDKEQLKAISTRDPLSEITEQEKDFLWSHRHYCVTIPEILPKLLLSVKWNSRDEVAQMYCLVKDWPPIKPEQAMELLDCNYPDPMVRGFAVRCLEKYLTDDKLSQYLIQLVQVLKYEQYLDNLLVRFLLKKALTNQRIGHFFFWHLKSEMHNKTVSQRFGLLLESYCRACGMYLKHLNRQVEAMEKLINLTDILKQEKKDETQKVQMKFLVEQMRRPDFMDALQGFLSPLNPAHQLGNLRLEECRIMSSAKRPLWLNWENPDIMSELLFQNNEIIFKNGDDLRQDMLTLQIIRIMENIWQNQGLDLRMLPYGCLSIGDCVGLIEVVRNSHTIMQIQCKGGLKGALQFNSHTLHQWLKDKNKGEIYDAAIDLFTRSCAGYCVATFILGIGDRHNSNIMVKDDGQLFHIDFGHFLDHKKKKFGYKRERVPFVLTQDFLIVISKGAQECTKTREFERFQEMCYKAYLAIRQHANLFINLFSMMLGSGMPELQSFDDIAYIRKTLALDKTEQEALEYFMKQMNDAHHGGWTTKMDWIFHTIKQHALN
Sequence of RAC-alpha serine/threonine-protein kinase (Homo sapiens), P31749 [S473D] (P31749 whole entry S473D, the tested form may be a part): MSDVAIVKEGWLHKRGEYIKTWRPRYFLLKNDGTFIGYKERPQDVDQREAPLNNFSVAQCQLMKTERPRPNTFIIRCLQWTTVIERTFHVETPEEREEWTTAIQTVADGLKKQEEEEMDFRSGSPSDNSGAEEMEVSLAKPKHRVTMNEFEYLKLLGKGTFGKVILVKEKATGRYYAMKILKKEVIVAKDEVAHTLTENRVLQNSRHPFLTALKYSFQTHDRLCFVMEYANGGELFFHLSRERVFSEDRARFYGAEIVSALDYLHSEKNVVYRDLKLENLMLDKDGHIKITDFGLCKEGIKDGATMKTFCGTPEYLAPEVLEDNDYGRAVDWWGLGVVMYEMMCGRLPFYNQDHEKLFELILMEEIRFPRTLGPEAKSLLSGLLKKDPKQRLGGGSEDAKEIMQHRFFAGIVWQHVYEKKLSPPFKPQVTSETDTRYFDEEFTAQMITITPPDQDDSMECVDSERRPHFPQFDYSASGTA
Sequence of Myosin light chain kinase 2, skeletal/cardiac muscle (Homo sapiens) (Q9H1R3 whole entry): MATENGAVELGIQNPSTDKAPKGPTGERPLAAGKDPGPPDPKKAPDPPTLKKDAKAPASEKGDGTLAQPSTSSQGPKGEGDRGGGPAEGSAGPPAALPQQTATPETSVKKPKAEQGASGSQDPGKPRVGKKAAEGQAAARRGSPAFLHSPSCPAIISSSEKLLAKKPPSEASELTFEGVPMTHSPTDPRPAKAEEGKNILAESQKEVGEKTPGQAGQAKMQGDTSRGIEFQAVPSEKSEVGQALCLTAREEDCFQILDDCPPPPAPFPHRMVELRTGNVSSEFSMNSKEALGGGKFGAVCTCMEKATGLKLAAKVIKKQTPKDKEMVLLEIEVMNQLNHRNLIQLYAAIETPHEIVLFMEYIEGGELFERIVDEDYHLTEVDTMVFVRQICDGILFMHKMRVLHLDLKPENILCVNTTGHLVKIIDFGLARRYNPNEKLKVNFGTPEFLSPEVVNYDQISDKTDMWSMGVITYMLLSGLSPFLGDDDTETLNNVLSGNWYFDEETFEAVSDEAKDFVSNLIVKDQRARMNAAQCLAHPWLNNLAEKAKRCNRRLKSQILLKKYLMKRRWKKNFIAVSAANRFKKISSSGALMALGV

Regarding `CC(C)(O)CNc1ncc(-c2ccnc(Nc3ccnc(Cl)c3)n2)c(CC2CC2)n1`, the inhibition entry in experiment [1], in [2], in [3], in experiment [4], in experiment [7] and in [8] was “inactive” throughout. Further, the inhibition entry in experiment [13], in [17], in experiment [21] and in [23] was “inactive” throughout. Also, the Activity in [5] is 70%; in experiment [9], 123%; in experiment [10] it was 108%; in experiment [11], 123%; in [12] it was 116%; in [14], 103%. Moreover, the Activity in experiment [16] was found to be 79%; in [18], 116%; in experiment [19], 121%; in [20], 118%. The IC50 in [6], in experiment [15] and in experiment [22] was above 10 µM throughout.

As usually defined, the IC50 is the concentration needed to halve the response being measured.
